Values after ≈ are worked out from the molar mass of the structure shown.
What was measured:
[1] = Solubility estimated by solvent aliquot addition at ambient temperature; type: physicochemical; conditions: thermodynamic from solid
Source text: Solubilities were estimated by solvent aliquot addition at ambient temperature and reported to the nearest whole number; if complete dissolution was achieved by one aliquot addition, the value is reported as “>”; if solids were present, the value is reported as “<”. The actual solubility may be larger than the value calculated because of the use of solvent aliquots that were too large or due to a slow rate of dissolution.

[2] = Dynamic vapor sorption (DVS); type: physicochemical; design: Hysteresis: unit not given here
Method: By DVS, a weight gain of 2.8 weight %, consistent with a gain of 0.9 mol water, was observed from 6% to 95% RH. A complete desorption was observed from 95% to 6% RH. No significant hysteresis was observed. The resulting crystalline material was analyzed by XRPD and shown to the Form A.

[3] = Cycle 1, target RH 95.0%, sample RH 95.4%

## Cc1cc(Nc2ncnn3ccc(C4CCN(C(=O)/C=C/CN(C)C)CC4)c23)ccc1Oc1ccn2ncnc2c1 [Compound 1 Form A, (E)-1-(4-(4-((4-([1,2,4]triazolo[1,5-a]pyridin-7-yloxy)-3-methylphenyl)amino)pyrrolo[2,1-f][1,2,4]triazin-5-yl)piperidin-1-yl)-4-(dimethylamino)but-2-en-1-one]
[1]; aqueous with cosolvent or surfactant or cyclodextrin, 10:90 dioxane/water v/v
  solubility: < 1 mg/mL
[1]; aqueous with cosolvent or surfactant or cyclodextrin, 20:80 MeOH/water v/v
  solubility: < 1 mg/mL
[1]; aqueous with cosolvent or surfactant or cyclodextrin, 35:65 THF/water v/v
  solubility: 17 mg/mL (≈ 30.8 mM)
[1]; aqueous with cosolvent or surfactant or cyclodextrin, 50:50 ACN/water v/v
  solubility: > 72 mg/mL
[1]; aqueous with cosolvent or surfactant or cyclodextrin, 50:50 DMAc/water v/v
  solubility: 10 mg/mL (≈ 18.1 mM)
[1]; aqueous with cosolvent or surfactant or cyclodextrin, 50:50 MeOH/water v/v
  solubility: 4 mg/mL (≈ 7.25 mM)
[1]; aqueous with cosolvent or surfactant or cyclodextrin, 50:50 THF/water v/v
  solubility: > 31 mg/mL
[1]; aqueous with cosolvent or surfactant or cyclodextrin, 50:50 acetone/water v/v
  solubility: 24 mg/mL (≈ 43.5 mM)
[1]; aqueous with cosolvent or surfactant or cyclodextrin, 50:50 dioxane/water v/v
  solubility: 29 mg/mL (≈ 52.6 mM)
[1]; organic solvent or mixture, 2-MeTHF
  solubility: 5 mg/mL (≈ 9.06 mM)
[1]; organic solvent or mixture, 10:90 chloroform/IPA v/v
  solubility: 27 mg/mL (≈ 48.9 mM)
[1]; organic solvent or mixture, 20:80 MeOH/EtOAc v/v
  solubility: > 51 mg/mL
[1]; organic solvent or mixture, 30:70 DCM/toluene v/v
  solubility: 9 mg/mL (≈ 16.3 mM)
[1]; organic solvent or mixture, 30:70 DMAc/MTBE v/v
  solubility: 29 mg/mL (≈ 52.6 mM)
[1]; organic solvent or mixture, 30:70 EtOH/toluene v/v
  solubility: > 88 mg/mL
[1]; organic solvent or mixture, 50:50 DCM/toluene v/v
  solubility: 50 mg/mL (≈ 90.6 mM)
[1]; organic solvent or mixture, 50:50 DMAc/toluene v/v
  solubility: > 28 mg/mL
[1]; organic solvent or mixture, 50:50 EtOAc/IPA v/v
  solubility: 17 mg/mL (≈ 30.8 mM)
[1]; organic solvent or mixture, 50:50 EtOAc/MIBK v/v
  solubility: 4 mg/mL (≈ 7.25 mM)
[1]; organic solvent or mixture, 70:30 THF/heptane v/v
  solubility: 10 mg/mL (≈ 18.1 mM)
[1]; organic solvent or mixture, ACN
  solubility: 7 mg/mL (≈ 12.7 mM)
[1]; organic solvent or mixture, Acetone
  solubility: 15 mg/mL (≈ 27.2 mM)
[1]; organic solvent or mixture, DCM
  solubility: > 88 mg/mL
[1]; organic solvent or mixture, DMAc
  solubility: > 110 mg/mL
[1]; organic solvent or mixture, EtOAc
  solubility: 3 mg/mL (≈ 5.44 mM)
[1]; organic solvent or mixture, IPA
  solubility: 3 mg/mL (≈ 5.44 mM)
[1]; organic solvent or mixture, MIBK
  solubility: 3 mg/mL (≈ 5.44 mM)
[1]; organic solvent or mixture, MTBE
  solubility: < 1 mg/mL
[1]; organic solvent or mixture, MeOH
  solubility: > 116 mg/mL
[1]; organic solvent or mixture, THF
  solubility: 38 mg/mL (≈ 68.9 mM)
[1]; organic solvent or mixture, chloroform
  solubility: > 100 mg/mL
[1]; organic solvent or mixture, cyclohexane
  solubility: < 1 mg/mL
[1]; organic solvent or mixture, dioxane
  solubility: 32 mg/mL (≈ 58 mM)
[1]; organic solvent or mixture, heptane
  solubility: < 2 mg/mL
[1]; organic solvent or mixture, toluene
  solubility: < 1 mg/mL
[1]; water
  solubility: < 1 mg/mL
[2]; Cycle 1, target RH 5.0%, sample RH 5.5%
  Sorp Mass Change: 0.004%
[2]; Cycle 1, target RH 5.0%, sample RH 5.8%
  Desorp Mass Change: −0.017%
[2]; Cycle 1, target RH 15.0%
  Hysteresis: −0.006
[2]; Cycle 1, target RH 15.0%, sample RH 15.3%
  Desorp Mass Change: 0.271%
[2]; Cycle 1, target RH 15.0%, sample RH 15.5%
  Sorp Mass Change: 0.277%
[2]; Cycle 1, target RH 25.0%
  Hysteresis: 0.039
[2]; Cycle 1, target RH 25.0%, sample RH 24.6%
  Sorp Mass Change: 0.609%
[2]; Cycle 1, target RH 25.0%, sample RH 25.0%
  Desorp Mass Change: 0.648%
[2]; Cycle 1, target RH 35.0%
  Hysteresis: 0.075
[2]; Cycle 1, target RH 35.0%, sample RH 34.3%
  Sorp Mass Change: 1.034%
[2]; Cycle 1, target RH 35.0%, sample RH 34.8%
  Desorp Mass Change: 1.109%
[2]; Cycle 1, target RH 45.0%
  Hysteresis: 0.104
[2]; Cycle 1, target RH 45.0%, sample RH 44.4%
  Sorp Mass Change: 1.470%
[2]; Cycle 1, target RH 45.0%, sample RH 44.9%
  Desorp Mass Change: 1.573%
[2]; Cycle 1, target RH 55.0%
  Hysteresis: 0.123
[2]; Cycle 1, target RH 55.0%, sample RH 54.3%
  Sorp Mass Change: 1.811%
[2]; Cycle 1, target RH 55.0%, sample RH 54.8%
  Desorp Mass Change: 1.934%
[2]; Cycle 1, target RH 65.0%
  Hysteresis: 0.112
[2]; Cycle 1, target RH 65.0%, sample RH 64.4%
  Sorp Mass Change: 2.087%
[2]; Cycle 1, target RH 65.0%, sample RH 64.9%
  Desorp Mass Change: 2.199%
[2]; Cycle 1, target RH 75.0%
  Hysteresis: 0.116
[2]; Cycle 1, target RH 75.0%, sample RH 74.5%
  Sorp Mass Change: 2.315%
[2]; Cycle 1, target RH 75.0%, sample RH 75.1%
  Desorp Mass Change: 2.431%
[2]; Cycle 1, target RH 85.0%
  Hysteresis: 0.096
[2]; Cycle 1, target RH 85.0%, sample RH 85.1%
  Sorp Mass Change: 2.559%
[2]; Cycle 1, target RH 85.0%, sample RH 86.2%
  Desorp Mass Change: 2.656%
[2]; [3]
  Desorp Mass Change: 2.849%
  Sorp Mass Change: 2.849%
[2]; from 6% to 95% RH
  water gain consistent with DVS weight gain: 0.9 mol water
  weight gain by DVS: 2.8 weight %

From patent US20250276984A1, “SOLID STATE FORMS OF HER2 INHIBITORS” (Iambic Therapeutics, Inc., priority 2024, published 2025)
